We go through two compounds from patent publication US20080242622A1, “Identification of genetic alterations that modulate drug sensitivity in cancer treatments” (Cold Spring Harbor Laboratory, priority 2007, published 2008).

Data set [1] has as its system shTop1 2215 relapsed tumor #4 cells. Put plainly: Ex vivo viability of relapsed tumor cells (propidium iodide exclusion flow cytometry). Particulars: treated ex-vivo for 24 hours. It is filed as cell-based, mice. From the text:
Viability, measured by propidium iodide exclusion flow cytometry, is plotted relative to untreated cells.
A general note: A flow cytometer gives signals particle by particle.

The conditions of data set [2]: congestive heart failure, dilated cardiomyopathy, death; cited from earlier work.
Data set [3] relates to Eμ-Myc Arf^−/− lymphoma cells. Put plainly: Apoptotic response / in vitro viability of lymphoma cells to doxorubicin. The format is cell-based, murine. Particulars: Mus musculus; apoptotic response within 24 hours.
Protocol: Competition and viability assays were performed according to the following protocols. 2 days post infection, lymphoma cells were split into replicate wells of 500,000 cells in 12 well plates. Following 24 hour treatments with a range of drug doses, the GFP positive percentage was quantified in the surviving cell population using a BD LSRII flow cytometer. The live cell population was gated via a forward scatter (FSC) versus side scatter (SSC) plotting. […] For in vitro cell viability assays, lymphoma cells were treated in triplicate at the indicated doses of doxorubicin/camptothecin. Viability was determined after 24 hours by an FSC versus SSC gate and plotted relative to untreated viability.

Where “and” joins values, the source holds several entries; their conditions need not be identical. Identical values can stand only once.

What is called IC50 is the midpoint of a concentration-inhibition curve. Higher therefore signals weaker potency. As to `COc1cccc2c1C(=O)c1c(O)c3c(c(O)c1C2=O)C[C@@](O)(C(=O)CO)C[C@@H]3O[C@H]1C[C@H](N)[C@H](O)[C@H](C)O1` [doxorubicin], the “drug resistance of Top2A down-regulated relapse compared to control primary tumor” value in data set [1] is listed as “doxorubicin resistance”. The “cumulative dose at which risks of cardiac side effects dramatically increase” value in data set [2] is on record as at least 550 mg/m^2. Moreover, the IC50 in data set [3] was ~0.007 µg/mL and ~16 nM.

For `N.N.[Cl][Pt][Cl]` [cisplatin], the “drug resistance of Top2A down-regulated relapse compared to control primary tumor” value in data set [1] is given as “not cross-resistance to cisplatin”.
